Experimental data reported in patent publication US20260250322A1, “NEW PEPTIDES AS SELECTIVE IL-23 RECEPTOR INHIBITORS” (SANOFI, priority 2023, published 2026).
Blank lines part the entries; values can stand above or below the compound they belong to. Bridge positions count the residues as written; N and C are the ends. Square brackets hold non-standard residues; d marks the D form. Peptide text beside a SMILES is read from it. Trp(1-Me) = Cn1cc(C[C@H](N)C(=O)O)c2ccccc21; dAla(4-thiazolyl) = N[C@H](Cc1cscn1)C(=O)O; 1Nal = N[C@@H](Cc1cccc2ccccc12)C(=O)O; 2Nal = N[C@@H](Cc1ccc2ccccc2c1)C(=O)O; Cit = NC(=O)NCCC[C@H](N)C(=O)O; αMeL = CC(C)C[C@](C)(N)C(=O)O; Aib = CC(C)(N)C(=O)O

Experiments:
[1] = system: IL-23 induced STAT3 signaling; assay: Inhibition of IL-23 induced STAT3 signaling in HEK-Blue IL-23 cells (SEAP reporter); type: cell-based; conditions: human IL-23 0.25 ng/ml, read-out: Inhibition of IL-23 induced pSTAT3 (IC50 nM)
Description: HEK-Blue™ IL-23 cells (Invivogen) are designed for the detection of bioactive human (hIL-23) and murine IL-23 (mIL-23) by monitoring the activation of the STAT3 pathway. Binding of IL-23 to its receptor on the surface of HEK-Blue™ IL-23 cells triggers a signaling cascade leading to the activation of STAT3 and the subsequent production of secreted embryonic alkaline phosphatase (SEAP). This can be readily assessed using QUANTI-Blue™ Solution, a SEAP detection reagent.
HEK-Blue™ IL-23 cells were cultured as described by Invivogen.
On the first day of assay 10 μL of the HEK-Blue IL-23 cell suspension (final concentration: 10,000 cells/well) and 10 μl of serially diluted compound solutions were dispensed into a 384-well assay plate. After pre-incubation of the reaction mixtures at 37° C./5% CO2/95% humidity for 60 minutes, 10 μl of the humanIL-23 cytokine (final concentration: 0.25 ng/ml) was added to each well for the STAT3 signaling activation. The plate was incubated overnight at 37° C./5% CO2/95% humidity.
On the second day 20 μl per well of Quanti-Blue detection solution (prepared according to the manufacture instruction) was dispensed into a new 384-well plate and followed by the transfer of 5 μl supernatant of the overnight incubated cell/sample mixtures. After incubation of 45 min at room temperature signals were measured with PHERAstar (BMG) at OD 620-655 nm.
Dose response data were fitted with XLfit.

human IL-23R = target: T1, human IL-23R (Homo sapiens, UniProt Q5VWK5); assay: Human ELISA IL-23/IL-23R binding inhibition; conditions: human IL-23 coated, recombinant human IL-23R-Fc chimera
T1 sequence (Q5VWK5 24-355 limits assumed): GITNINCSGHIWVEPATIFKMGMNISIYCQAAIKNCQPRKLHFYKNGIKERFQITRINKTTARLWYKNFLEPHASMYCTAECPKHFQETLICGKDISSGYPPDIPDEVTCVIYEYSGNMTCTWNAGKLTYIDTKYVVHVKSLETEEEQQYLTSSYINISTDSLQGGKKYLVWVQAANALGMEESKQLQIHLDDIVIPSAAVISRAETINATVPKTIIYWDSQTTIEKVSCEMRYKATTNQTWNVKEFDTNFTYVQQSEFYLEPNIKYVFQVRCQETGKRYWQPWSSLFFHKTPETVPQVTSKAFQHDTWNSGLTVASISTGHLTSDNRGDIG
Procedure: Antagonism of peptide compounds for human interleukin-23 receptor inhibitors, was determined by an ELISA assay.
A 384-well plate was coated with 50 μl/well of human IL-23 at a final concentration of 1 μg/ml and incubated overnight at 4° C. The wells were washed 3 times with 80 μl wash buffer and blocked with 80 μl blocking buffer for 60 minutes at room temperature and washed again. 20 μl of serially diluted test peptides was added to each well and subsequently 20 μl of recombinant human IL-23R-Fc chimera at final concentration of 0.1 μg/ml. The plate was incubated for 60 minutes at room temperature. After the wells were washed, bound IL-23R-Fc was detected with goat anti-hu-lgG1-HRP antibody. Signals were visualized with QuantaBlu Fluorogenic Peroxidase Substrate.

[2] = Chemical stability (relative purity loss) of peptide compounds in buffer formulations; type: physicochemical
Procedure: Purity of a compound batch was determined through UHPLC/MS prior to chemical stability measurement using Method A.
For stability assessment, the target concentration was 300 μM pure compound. Therefore, solutions from solid samples were prepared in the following buffer systems with a concentration of ~300 µM compound based on the previously determined % purity. The solid samples were obtained by drying down aliquots of a freshly prepared acetonitrile stock solution using a THERMO SPEEDVAC vacuum centrifuge. The dry down time was 3 hours.
The following buffer systems were applied: • Solubility buffer system A) 100 mM phosphate buffer pH 7.4. • Solubility buffer system B) 100 mM phosphate buffer pH 6.5. • Solubility buffer system C) 100 mM HCl pH 1.2.
Prepared solutions were filtered through […] pore size and filled into sterilized glass containers under laminar flow conditions.
[…] After this time course, the samples were centrifuged for 15 min at 2500 RCF. Then 1.5 μl of the undiluted supernatant were analysed with UHPLC-UV.
The chemical stability was rated through the relative loss of purity calculated by the equation:
[(purity after 0 hours at 37° C.)(purity after 24 hours at 37° C.)]/(purity after 0 hours at 37° C.)]*100%.
The purity is calculated as [(peak area peptide)/(total peak area)]*100%.
Buffer composition: 100 mM HCl pH 1.2, 100 mM phosphate buffer pH 6.5, 100 mM phosphate buffer pH 7.4

[3] = pH 6.5 (100 mM phosphate buffer)
[4] = pH 7.4 (100 mM phosphate buffer)

SMILES: COc1ccc(C[C@@H]2NC(=O)[C@H](CCCNC(=N)N)NC(=O)[C@H](CCC(N)=O)NC(=O)[C@H](Cc3c[nH]c4ccccc34)NC(=O)[C@H]([C@@H](C)O)NC(=O)[C@H](CC(N)=O)NC(=O)[C@H](NC(C)=O)CCCCNC(=O)C[C@@H](C(=O)N[C@@H](CC(N)=O)C(=O)N[C@@H](CC(N)=O)C(N)=O)NC(=O)[C@H](CCCNC(N)=O)NC(=O)[C@H](Cc3ccc4ccccc4c3)NC2=O)cc1 [compound 29] (Ac-[dK]NTWQRY(Me)[2Nal][Cit]DNN-NH2; lactam 1-10)
IC50 [1]: 2720 nM
IC50 (human IL-23R): 5.63 nM

SMILES: COc1ccc(C[C@@H]2NC(=O)[C@H](CCCNC(=N)N)NC(=O)[C@H](CCC(N)=O)NC(=O)[C@H](Cc3cn(C)c4ccccc34)NC(=O)[C@H]([C@@H](C)O)NC(=O)[C@H](CC(N)=O)NC(=O)[C@H](NC(C)=O)CCCCNC(=O)C[C@@H](C(=O)N[C@@H](CC(N)=O)C(=O)N[C@@H](CC(N)=O)C(N)=O)NC(=O)[C@@H](Cc3cscn3)NC(=O)[C@H](Cc3ccc4ccccc4c3)NC2=O)cc1 [compound 25] (Ac-[dK]NT[Trp(1-Me)]QRY(Me)[2Nal][dAla(4-thiazolyl)]DNN-NH2; lactam 1-10)
IC50 [1]: 3830 nM
IC50 (human IL-23R): 9.61 nM

SMILES: COc1ccc(C[C@@H]2NC(=O)[C@H](CCCNC(=N)N)NC(=O)[C@H](CCC(N)=O)NC(=O)[C@H](Cc3cn(C)c4ccccc34)NC(=O)[C@H]([C@@H](C)O)NC(=O)[C@H](CC(N)=O)NC(=O)[C@H](NC(C)=O)CCCCNC(=O)C[C@@H](C(=O)N[C@@H](CC(N)=O)C(=O)N[C@@H](CC(N)=O)C(N)=O)NC(=O)[C@](C)(CC(C)C)NC(=O)[C@H](Cc3cccc4ccccc34)NC2=O)cc1 [compound 23] (Ac-[dK]NT[Trp(1-Me)]QRY(Me)[1Nal][αMeL]DNN-NH2; lactam 1-10)
IC50 [1]: 1960 nM
IC50 (human IL-23R): 12 nM

SMILES: COc1ccc(C[C@@H]2NC(=O)[C@H](CCCNC(=N)N)NC(=O)[C@H](CCC(N)=O)NC(=O)[C@H](Cc3c[nH]c4ccccc34)NC(=O)[C@H]([C@@H](C)O)NC(=O)[C@H](CC(N)=O)NC(=O)[C@H](NC(C)=O)CC(=O)NCCCC[C@@H](C(=O)N[C@@H](CC(N)=O)C(=O)N[C@@H](CC(N)=O)C(N)=O)NC(=O)C(C)(C)NC(=O)[C@H](Cc3ccc4ccccc4c3)NC2=O)cc1 [compound 12] (Ac-[dD]NTWQRY(Me)[2Nal][Aib]KNN-NH2; lactam 1-10)
IC50 [1]: 6590 nM
IC50 (human IL-23R): 14.9 nM

SMILES: COc1ccc(C[C@@H]2NC(=O)[C@H](CCCNC(=N)N)NC(=O)[C@H](CCC(N)=O)NC(=O)[C@H](Cc3c[nH]c4ccccc34)NC(=O)[C@H]([C@@H](C)O)NC(=O)[C@H](CC(N)=O)NC(=O)[C@@H](NC(C)=O)CCCCNC(=O)C[C@@H](C(=O)N[C@@H](CC(N)=O)C(=O)N[C@@H](CC(N)=O)C(N)=O)NC(=O)C(C)(C)NC(=O)[C@H](Cc3cccc4ccccc34)NC2=O)cc1 [compound 9] (Ac-KNTWQRY(Me)[1Nal][Aib]DNN-NH2; lactam 1-10)
IC50 [1]: 1610 nM
Conc. [mg/ml] 0 h ([2]; pH 1.2 (100 mM HCl)): 1.5 mg/mL
Conc. [mg/ml] 24 h 37° C. ([2]; pH 1.2 (100 mM HCl)): 1.1 mg/mL
Mass Balance [%] 24 h 37° C. ([2]; pH 1.2 (100 mM HCl)): −1.9%
Relative Purity Loss [%] 24 h 37° C. ([2]; pH 1.2 (100 mM HCl)): 22.3%
Conc. [mg/ml] 0 h [2, 3]: 1.2 mg/mL
Conc. [mg/ml] 24 h 37° C. [2, 3]: 1.2 mg/mL
Mass Balance [%] 24 h 37° C. [2, 3]: −1.8%
Relative Purity Loss [%] 24 h 37° C. [2, 3]: 1.2%
Conc. [mg/ml] 0 h [2, 4]: 1.5 mg/mL
Conc. [mg/ml] 24 h 37° C. [2, 4]: 1.4 mg/mL
Mass Balance [%] 24 h 37° C. [2, 4]: −3.2%
Relative Purity Loss [%] 24 h 37° C. [2, 4]: 2.6%

Now those with a lower IC50 [1], led by results:

IC50 [1]: 234 nM
IC50 (human IL-23R): 0.69 nM
SMILES: COc1ccc(C[C@@H]2NC(=O)[C@H](C)NC(=O)[C@H](CCC(N)=O)NC(=O)[C@H](Cc3c[nH]c4ccccc34)NC(=O)[C@H]([C@@H](C)O)NC(=O)[C@H](CC(N)=O)NC(=O)[C@H](NC(C)=O)CCCCNC(=O)C[C@@H](C(=O)N[C@@H](CC(N)=O)C(=O)N[C@@H](CC(N)=O)C(N)=O)NC(=O)C(C)(C)NC(=O)[C@H](Cc3ccc4ccccc4c3)NC2=O)cc1 [compound 2] (Ac-[dK]NTWQAY(Me)[2Nal][Aib]DNN-NH2; lactam 1-10)

IC50 [1]: 334 nM
IC50 (human IL-23R): 0.63 nM
SMILES: COc1ccc(C[C@@H]2NC(=O)[C@H](CC(C)C)NC(=O)[C@H](CCC(N)=O)NC(=O)[C@H](Cc3c[nH]c4ccccc34)NC(=O)[C@H]([C@@H](C)O)NC(=O)[C@H](CC(N)=O)NC(=O)[C@H](NC(C)=O)CCCCNC(=O)C[C@@H](C(=O)N[C@@H](CC(N)=O)C(=O)N[C@@H](CC(N)=O)C(N)=O)NC(=O)C(C)(C)NC(=O)[C@H](Cc3ccc4ccccc4c3)NC2=O)cc1 [compound 1] (Ac-[dK]NTWQLY(Me)[2Nal][Aib]DNN-NH2; lactam 1-10)

IC50 [1]: 1440 nM
IC50 (human IL-23R): 3.6 nM
SMILES: COc1ccc(C[C@@H]2NC(=O)[C@H](CCCNC(=N)N)NC(=O)[C@H](CCC(N)=O)NC(=O)[C@H](Cc3cn(C)c4ccccc34)NC(=O)[C@H]([C@@H](C)O)NC(=O)[C@H](CC(N)=O)NC(=O)[C@H](NC(C)=O)CCCCNC(=O)C[C@@H](C(=O)N[C@@H](CC(N)=O)C(=O)N[C@@H](CC(N)=O)C(N)=O)NC(=O)[C@H](CCCCNC(C)=O)NC(=O)[C@H](Cc3ccc4ccccc4c3)NC2=O)cc1 [compound 10] (Ac-[dK]NT[Trp(1-Me)]QRY(Me)[2Nal]K(Ac)DNN-NH2; lactam 1-10)

IC50 [1]: 128 nM
IC50 (human IL-23R): 8.27 nM
SMILES: COc1ccc(C[C@@H]2NC(=O)[C@H](C(C)C)NC(=O)[C@H](CCC(N)=O)NC(=O)[C@H](Cc3c[nH]c4ccccc34)NC(=O)[C@H]([C@@H](C)O)NC(=O)[C@H](CC(N)=O)NC(=O)[C@H](NC(C)=O)CCCCNC(=O)C[C@@H](C(=O)N[C@@H](CC(N)=O)C(=O)N[C@@H](CC(N)=O)C(N)=O)NC(=O)C(C)(C)NC(=O)[C@H](Cc3ccc4ccccc4c3)NC2=O)cc1 [compound 31] (Ac-[dK]NTWQVY(Me)[2Nal][Aib]DNN-NH2; lactam 1-10)

IC50 [1]: 339 nM
Conc. [mg/ml] 0 h ([2]; pH 1.2 (100 mM HCl)): 1.4 mg/mL
Conc. [mg/ml] 24 h 37° C. ([2]; pH 1.2 (100 mM HCl)): 1.0 mg/mL
Mass Balance [%] 24 h 37° C. ([2]; pH 1.2 (100 mM HCl)): −2.3%
Relative Purity Loss [%] 24 h 37° C. ([2]; pH 1.2 (100 mM HCl)): 22.9%
Conc. [mg/ml] 0 h [2, 3]: 1.4 mg/mL
Conc. [mg/ml] 24 h 37° C. [2, 3]: 1.3 mg/mL
Mass Balance [%] 24 h 37° C. [2, 3]: −4.6%
Relative Purity Loss [%] 24 h 37° C. [2, 3]: 0.7%
Conc. [mg/ml] 0 h [2, 4]: 1.4 mg/mL
Conc. [mg/ml] 24 h 37° C. [2, 4]: 1.3 mg/mL
Mass Balance [%] 24 h 37° C. [2, 4]: −2.2%
Relative Purity Loss [%] 24 h 37° C. [2, 4]: 2.7%
SMILES: CC(=O)N[C@@H]1CCCCNC(=O)C[C@@H](C(=O)N[C@@H](CC(N)=O)C(=O)N[C@@H](CC(N)=O)C(N)=O)NC(=O)C(C)(C)NC(=O)[C@H](Cc2ccc3ccccc3c2)NC(=O)[C@H](Cc2ccc(O)cc2)NC(=O)[C@H](CCCNC(=N)N)NC(=O)[C@H](CCC(N)=O)NC(=O)[C@H](Cc2c[nH]c3ccccc23)NC(=O)[C@H]([C@@H](C)O)NC(=O)[C@H](CC(N)=O)NC1=O [compound 4] (Ac-[dK]NTWQRY[2Nal][Aib]DNN-NH2; lactam 1-10)
